Data on 22 molecules can be found in PubChem BioAssay AID434987 (Southern Research Specialized Biocontainment Screening …, 2010).

This assay deals with M. tuberculosis H37Rv growth inhibition with meropenem. The experiment in a line: dose response, H37Rv, with and without meropenem (AID 434987).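 Also: growth over 7 days at 37 °C before Alamar Blue read on day 9.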
[1] abbreviates: M. tuberculosis H37Rv growth inhibition, measured here: IC50 without meropenem.
The mark [2] stands for this setting: M. tuberculosis H37Rv growth inhibition, measured here: IC90 without meropenem.
Setting [3] is: measured here: IC90 with meropenem.

Each structure is given as a SMILES string. Calls of active or inactive are those of the source. No rule for the calls is given here.

For orientation: IC50 means the concentration that gives 50% inhibition. As usually defined, the IC90 is the point of the concentration-response curve where the effect stands at 90%. Regarding `O=S(=O)(Cc1ccccc1)c1cnc2ccccc2n1`, the IC50 is 14.1 µM (inactive). Also, the IC50 under setting [1] came out at 24.3 µM. Also, the IC90 under setting [2] is 26.6 µM. The molecule further showed an IC90 under setting [3] of 48.6 µM.
Taken in the same sequence, the figures for `CCCCCCCN(C(=O)CCl)c1ccccc1C` were 4.49 µM, 11.8 µM, 37.3 µM and 35.2 µM.
For the molecule `COc1ccc(/C=C2/CCCC(C(=O)C(F)(F)F)=C2O)cc1OC`, the IC50 is 34.6 µM. In addition, the IC50 under setting [1] is 96.9 µM. For the same molecule, under setting [2], the IC90 is greater than 100 µM. Besides, under setting [3], the IC90 was greater than 100 µM.
As for `CC[C@@]1(c2ccccc2OC)C(=O)N(C(=O)OC)N1C(=O)OC`, the IC50 is 13.9 µM. The IC50 under setting [1] is greater than 100 µM. The molecule further registered a concentration for an effect of 90% (IC90) under setting [2] greater than 100 µM. Moreover, the IC90 under setting [3] is greater than 100 µM.
For the molecule `Cc1onc(-c2ccccc2)c1C(=O)Nc1ccc(-c2nnc3n2CCCCC3)cc1`, the IC50 is 23.8 µM (inactive). For the same molecule, under setting [1], the IC50 was 29.3 µM. This molecule also had an IC90 under setting [2] of 71.2 µM. Further, the IC90 under setting [3] turned out to be 38.6 µM.
Taken in the same sequence, the figures for `COc1cccc(CNC(=O)C(Cc2ccccc2)n2cccc2)c1` (stereo not drawn) were 50.7 µM (inactive), 67.4 µM, greater than 100 µM and greater than 100 µM.
The matching figures for `Cc1ccc(-c2nc3[nH]c(=O)cc(NC(=O)C(C)C)n3n2)cc1`: 7.36 µM, greater than 100 µM, greater than 100 µM and greater than 12.5 µM.
With `Cn1c(=O)c(C(=O)COC(=O)c2cc(C3CC3)nc3ccccc23)c(N)n(Cc2ccccc2)c1=O`, the IC50 was > 100 µM (inactive). The molecule further showed an IC50 under setting [1] greater than 100 µM. Under setting [2], the IC90 is greater than 100 µM. Further, the IC90 under setting [3] is greater than 100 µM.
For `CC(C)c1ccc(S(=O)(=O)N2CCN(C(C)C(=O)NC3CCCC3)CC2)cc1` (stereo not drawn), the IC50 was > 100 µM (inactive). The same molecule had an IC50 under setting [1] greater than 100 µM. In addition, the IC90 under setting [2] is greater than 100 µM. Under setting [3], this molecule came in with an IC90 greater than 100 µM.
As to `CCC1(CC)Cc2ccccc2C(N)=C1C#N`, the IC50 is > 100 µM (inactive). The same molecule yielded an IC50 under setting [1] greater than 100 µM. For the same molecule, the IC90 under setting [2] was greater than 100 µM. This molecule also gave an IC90 under setting [3] greater than 100 µM.
In the case of `O=C(Nc1ccc(Cl)cc1F)c1cccc2ccccc12`, the IC50 was > 100 µM (inactive). In addition, the IC50 under setting [1] was greater than 100 µM. Also, the IC90 under setting [2] was greater than 100 µM. Besides, under setting [3], the IC90 was greater than 100 µM.
Regarding `COC(=O)c1cc(C)[nH]c2c(C)cc3nc4ccccc4c3c12`, the IC50 was > 100 µM (inactive). This molecule came in with an IC50 under setting [1] greater than 100 µM. This molecule also yielded a concentration for an effect of 90% (IC90) under setting [2] greater than 100 µM. Further, the IC90 under setting [3] is greater than 100 µM.
As for `O=C(O/N=C\c1ccc(N2CCCCC2)c([N+](=O)[O-])c1)c1c(F)cccc1F`, the IC50 is > 100 µM (inactive). Besides, under setting [1], the IC50 was greater than 100 µM. Under setting [2], this molecule yielded an IC90 greater than 100 µM. In addition, the IC90 under setting [3] is greater than 100 µM.
On to `Clc1ccc(CSc2ccc(-c3cccnc3)nn2)cc1`, for which the IC50 was 40.1 µM. Under setting [1], the IC50 is greater than 100 µM. For the same molecule, under setting [2], the IC90 is greater than 100 µM. The concentration for an effect of 90% (IC90) under setting [3] was greater than 100 µM.
Consider `O=C1N/C(=C\c2ccc(O)cc2)C(=O)c2ccccc21`, for which the IC50 is 21.9 µM. This molecule also displayed an IC50 under setting [1] of 59.6 µM. The molecule also returned an IC90 under setting [2] greater than 100 µM. The IC90 under setting [3] is greater than 100 µM.
As for `O=C(NNC(=O)c1cc(OCC(F)(F)F)ccc1OCC(F)(F)F)c1cccc(C(F)(F)F)c1`, the IC50 was > 100 µM (inactive). Moreover, under setting [1], the IC50 is greater than 100 µM. Further, the IC90 under setting [2] was greater than 100 µM. Under setting [3], this molecule had an IC90 greater than 100 µM.
As to `O=C(NNC1=C(C(=O)C(F)(F)F)CCC1)c1cccc(O)c1`, the IC50 is 68 µM (inactive). Under setting [1], this molecule returned an IC50 greater than 100 µM. Further, the IC90 under setting [2] is greater than 100 µM. Moreover, the IC90 under setting [3] was greater than 100 µM.
As to `CC(=O)C1=C(C)NC(SCC(=O)c2ccccc2)=C(C#N)C1CC(C)C` (stereo not drawn), the IC50 was 51.8 µM (inactive). Further, the IC50 under setting [1] stood at 88.5 µM. Under setting [2], this molecule yielded an IC90 greater than 100 µM. Besides, under setting [3], the IC90 is greater than 100 µM.
Consider `NC(N)=NS(=O)(=O)c1ccc(N)cc1`, for which the IC50 was > 100 µM (inactive). Besides, under setting [1], the IC50 was greater than 100 µM. The molecule further registered an IC90 under setting [2] greater than 100 µM. The IC90 under setting [3] is greater than 100 µM.
Consider `Cc1ccc(CNC(=O)c2ccccc2NC(=O)CSc2nnnn2C)cc1`, for which the IC50 is 36.6 µM (inactive). This molecule registered an IC50 under setting [1] of 81.1 µM. The same molecule yielded an IC90 under setting [2] greater than 100 µM. Under setting [3], the IC90 was greater than 100 µM.
Take `O=C(CSc1nnc(COc2ccccc2)o1)N1CCN(c2ccccc2)CC1`: the IC50 is > 100 µM (inactive). Under setting [1], this molecule registered an IC50 greater than 100 µM. The same molecule came in with an IC90 under setting [2] greater than 100 µM. Also, the IC90 under setting [3] is greater than 100 µM.
For the molecule `Cc1c(C(=O)NCCC2=CCCCC2)sc2ncnc(N3CCCCC3C)c12` (stereo not drawn), the IC50 is 47.5 µM (inactive). Under setting [1], this molecule registered a 50% inhibitory concentration (IC50) of 65.7 µM. Under setting [2], the IC90 is greater than 100 µM. The IC90 under setting [3] was found to be 52 µM.
